# Target: T1, human Bradykinin B1 receptor (Homo sapiens, UniProt P46663)
# T1 construct: host or cells: CHO-K1
# T1 sequence (P46663 1-353): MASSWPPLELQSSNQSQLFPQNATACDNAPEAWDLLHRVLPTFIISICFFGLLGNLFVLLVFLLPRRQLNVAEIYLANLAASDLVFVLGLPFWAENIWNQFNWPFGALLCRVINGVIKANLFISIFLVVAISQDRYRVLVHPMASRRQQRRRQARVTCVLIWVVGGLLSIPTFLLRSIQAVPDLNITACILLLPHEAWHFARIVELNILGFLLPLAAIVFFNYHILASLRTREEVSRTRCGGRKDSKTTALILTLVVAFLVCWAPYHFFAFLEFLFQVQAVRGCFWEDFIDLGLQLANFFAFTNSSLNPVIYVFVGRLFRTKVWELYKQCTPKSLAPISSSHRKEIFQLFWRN
# Assay: Calcium flux assay (FLIPR), CHO-K1 cells expressing human Bradykinin B1 receptor, absence of 0.1% BSA (hB1 free IC50)
# Format: cell-based
# Conditions: absence of 0.1% BSA in assay buffer
# Experimental: The potency to inhibit the Bradykinin B1 receptor was determined for the Compound Examples of this invention in a cell-based fluorescent calcium-mobilisation assay. The assay measures the ability of Compound Examples to inhibit Bradykinin B1 receptor agonist-induced increase of intracellular free Ca^2+ in the cell line expressing Bradykinin B1 receptor. Specifically, calcium indicator-loaded cells are pre-incubated in the absence or presence of different concentrations of Compound Examples followed by the stimulation with a selective Bradykinin B1 receptor agonist peptide. The change of the intracellular Ca^2+ concentration is monitored with a fluorescent plate reader FLIPR^TETRA® (Molecular Devices).
# Calcium Flux Assays (FLIPR) with Cells Expressing Human Bradykinin B1 Receptor (hB1)
# CHO-K1 cell line expressing human Bradykinin B1 receptor is purchased from Euroscreen (Gosselies, Belgium, with reference name hB1-D1). The cells are grown in Nutrient Mixture Ham's F12 (Sigma) containing 10% Foetal bovine serum (Sigma) and 400 μg/mL G418 (Sigma), 5 μg/mL puromycin (Sigma).
# The effect of BSA on the potency of endothelin receptor antagonists have been described in the prior art (Wu-Wong, J. R. et al. (1997), JPET 281: 791-798). The teaching can be applied in analogy to testing the potency of Bradykinin B1 receptor antagonist in the FLIPR assays.
# For the calcium flux assay, 80% confluent cells are detached from the culture vessels with Versene (Gibco), and seeded into 384-well plates (Cell binding Surface; Corning, NY; #3683) at a density of 15,000 cells per well. Cells are seeded in a volume of 50 μL in medium without antibiotics and incubated overnight in a humidified atmosphere with 5% CO2 at 37° C. […] The calcium indicator loaded cells are incubated at 37° C. for 2 hrs. Extracellular dye is then removed and each well is filled with 45 μL of assay buffer. Cell plates are kept in dark until used. Compound examples are assayed at 8 concentrations in triplicate. Serial 10-fold dilutions in 100% DMSO are made at a 100-times higher concentration than the final concentration, and then diluted 1:10 in assay buffer. 5 μL of each diluted compound is added to the well of cell plates (yielding final concentration with 1% DMSO), and incubated for 30 min at 28° C. before the addition of Bradykinin B1 receptor agonist on the FLIPR instrument.
# The addition of agonist 20 μl per well to the assay plate is carried out on the FLIPR instrument while continuously monitoring Ca2+-dependent fluorescence at 538 nm. A peptide antagonist Lys-(Des-Arg-Leu)-Bradykinin (Bachem, Brackley) at 20 µM is used to determine the full inhibition as control.
# Peak fluorescence is used to determine the response to agonist obtained at each concentration of Compound Examples by the following equation: % Response=100*(RFU(compound)−RFU(control))/(RFU(DMSO)−RFU(control))
# RFU means relative fluorescence units.
# Control means full inhibition by the peptide antagonist Lys-(Des-Arg-Leu)-Bradykinin at 20 µM.
# The response values are plotted against the logarithm of the compound concentrations. The Compound Examples are tested in triplicates per plate and mean values are plotted in Excel XLfit to determine IC50 values, percentage of maximal inhibition and the Hill slopes.
row,Compound,IC50 [nM]
1,"O=C(O)c1cc(NC(=O)C2(c3cc(F)cc(Cl)c3)CC2)ccc1-c1cnn(C2CCC2)c1 [Example 57, 5-({[1-(3-Chloro-5-fluorophenyl)cyclopropyl]carbonyl}amino)-2-(1-cyclobutyl-1H-pyrazol-4-yl)benzoic acid]",840
2,"O=C(O)c1cc(NC(=O)C2(c3ccc(Cl)cn3)CC2)ccc1-c1cnn(C2CCC2)c1 [Example 58, 5-({[1-(5-Chloropyridin-2-yl)cyclopropyl]carbonyl}amino)-2-(1-cyclobutyl-1H-pyrazol-4-yl)benzoic acid]",360
3,"O=C(O)c1cc(NC(=O)C2(c3c(F)cccc3F)CC2)ccc1-c1cnn(C2CCC2)c1 [Example 59, 2-(1-Cyclobutyl-1H-pyrazol-4-yl)-5-({[1-(2,6-difluorophenyl)cyclopropyl]carbonyl}amino)benzoic acid]",1100
4,"O=C(O)c1cc(NC(=O)C2(c3cc(C(F)(F)F)ccc3F)CC2)ccc1-c1cnn(C2CCC2)c1 [Example 60, 2-(1-Cyclobutyl-1H-pyrazol-4-yl)-5-[({1-[2-fluoro-5-(trifluoromethyl)phenyl]cyclopropyl}carbonyl)amino]benzoic acid]",62
5,"O=C(O)c1cc(NC(=O)C2(c3ccc(F)cc3Cl)CC2)ccc1-c1cnn(C2CCC2)c1 [Example 61, 5-({[1-(2-Chloro-4-fluorophenyl)cyclopropyl]carbonyl}amino)-2-(1-cyclobutyl-1H-pyrazol-4-yl)benzoic acid]",200
6,"O=C(O)c1cc(NC(=O)C2(c3c(F)cccc3Cl)CC2)ccc1-c1cnn(C2CCC2)c1 [Example 62, 5-({[1-(2-Chloro-6-fluorophenyl)cyclopropyl]carbonyl}amino)-2-(1-cyclobutyl-1H-pyrazol-4-yl)benzoic acid]",89
7,"COc1ccc(F)c(C2(C(=O)Nc3ccc(-c4cnn(C5CCC5)c4)c(C(=O)O)c3)CC2)c1 [Example 63, 2-(1-Cyclobutyl-1H-pyrazol-4-yl)-5-({[1-(2-fluoro-5-methoxyphenyl)cyclopropyl]carbonyl}amino)benzoic acid]",3000
8,"CC1(C)CC1(C(=O)Nc1ccc(-c2cnn(C3CCC3)c2)c(C(=O)O)c1)c1ccccc1F (stereo not drawn) [Example 64, 2-(1-Cyclobutyl-1H-pyrazol-4-yl)-5-({[1-(2-fluorophenyl)-2,2-dimethylcyclopropyl]carbonyl}amino)benzoic acid]",1300
9,"O=C(O)c1cc(NC(=O)C2(c3ccc(OC(F)(F)F)cc3F)CC2)ccc1-n1cc(C(F)(F)F)cn1 [Example 65, 5-[({1-[2-Fluoro-4-(trifluoromethoxy)phenyl]cyclopropyl}carbonyl)amino]-2-[4-(trifluoromethyl)-1H-pyrazol-1-yl]benzoic acid]",2600
10,"CC(C)(C)c1ccn(-c2ccc(NC(=O)C3(c4ccc(OC(F)(F)F)cc4F)CC3)cc2C(=O)O)n1 [Example 66, 2-(3-tert-Butyl-1H-pyrazol-1-yl)-5-[({1-[2-fluoro-4-(trifluoromethoxy)phenyl]cyclopropyl}carbonyl)amino]benzoic acid]",2100
11,"CCn1cc(-c2ccc(NC(=O)C3(c4ccc(C(F)(F)F)cc4F)CC3)cc2C(=O)O)cn1 [Example 68, 2-(1-Ethyl-1H-pyrazol-4-yl)-5-[({1-[2-fluoro-4-(trifluoromethyl)phenyl]cyclopropyl}carbonyl)amino]benzoic acid]",36
12,"CCn1cc(-c2ccc(NC(=O)C3(c4ccc(OC(F)(F)F)cc4F)CC3)cc2C(=O)O)cn1 [Example 69, 2-(1-Ethyl-1H-pyrazol-4-yl)-5-[({1-[2-fluoro-4-(trifluoromethoxy)phenyl]cyclopropyl}carbonyl)amino]benzoic acid]",28
13,"CC(C)(C)n1cc(-c2ccc(NC(=O)C3(c4ccc(C(F)(F)F)cc4F)CC3)cc2C(=O)O)cn1 [Example 72, 2-(1-tert-Butyl-1H-pyrazol-4-yl)-5-[({1-[2-fluoro-4-(trifluoromethyl)phenyl]cyclopropyl}carbonyl)amino]benzoic acid]",28
14,"CC(C)(C)Cn1cc(-c2ccc(NC(=O)C3(c4ccc(C(F)(F)F)cc4F)CC3)cc2C(=O)O)cn1 [Example 76, 2-[1-(2,2-Dimethylpropyl)-1H-pyrazol-4-yl]-5-[({1-[2-fluoro-4-(trifluoromethyl)phenyl]cyclopropyl}carbonyl)amino]benzoic acid]",11
15,"O=C(O)c1cc(NC(=O)C2(c3ccc(OC(F)(F)F)cc3)CC2)ccc1-c1cnn(C2CCC2)c1 [Example 78, 2-(1-Cyclobutyl-1H-pyrazol-4-yl)-5-[({1-[4-(trifluoromethoxy)phenyl]cyclopropyl}carbonyl)amino]benzoic acid]",300
16,"O=C(O)c1cc(NC(=O)C2(c3ccc(C(F)(F)F)c(F)c3)CC2)ccc1-c1cnn(C2CCC2)c1 [Example 79, 2-(1-Cyclobutyl-1H-pyrazol-4-yl)-5-[({1-[3-fluoro-4-(trifluoromethyl)phenyl]cyclopropyl}carbonyl)amino]benzoic acid]",60
17,"Cc1ccc(C2(C(=O)Nc3ccc(-c4cnn(C5CCC5)c4)c(C(=O)O)c3)CC2)c(F)c1 [Example 80, 2-(1-Cyclobutyl-1H-pyrazol-4-yl)-5-({[1-(2-fluoro-4-methylphenyl)cyclopropyl]carbonyl}amino)benzoic acid]",120
18,"Cc1ccc(C2(C(=O)Nc3ccc(-c4cnn(C5CCC5)c4)c(C(=O)O)c3)CC2)cc1F [Example 81, 2-(1-Cyclobutyl-1H-pyrazol-4-yl)-5-({[1-(3-fluoro-4-methylphenyl)cyclopropyl]carbonyl}amino)benzoic acid]",680
19,"O=C(O)c1cc(NC(=O)C2(c3ccc(F)cn3)CC2)ccc1-c1cnn(C2CCC2)c1 [Example 82, 2-(1-Cyclobutyl-1H-pyrazol-4-yl)-5-({[1-(5-fluoropyridin-2-yl)cyclopropyl]carbonyl}amino)benzoic acid]",2500
20,"O=C(O)c1cc(NC(=O)C2(c3ccc(C(F)(F)F)cc3F)CC2)ccc1-c1cnn([C@@H]2CCOC2)c1 [Example 83, 5-[({1-[2-Fluoro-4-(trifluoromethyl)phenyl]cyclopropyl}carbonyl)amino]-2-{1-[(3R)-tetrahydrofuran-3-yl]-1H-pyrazol-4-yl}benzoic acid]",560
21,"O=C(O)c1cc(NC(=O)C2(c3ccc(C(F)(F)F)cc3F)CC2)ccc1-c1cnn([C@H]2CCOC2)c1 [Example 84, 5-[({1-[2-Fluoro-4-(trifluoromethyl)phenyl]cyclopropyl}carbonyl)amino]-2-{1-[(3S)-tetrahydrofuran-3-yl]-1H-pyrazol-4-yl}benzoic acid]",570
22,"CC(C)n1cc(-c2c(F)cc(NC(=O)C3(c4ccc(C(F)(F)F)cc4)CC3)cc2C(=O)O)cn1 [Example 85, 3-Fluoro-2-[1-(propan-2-yl)-1H-pyrazol-4-yl]-5-[({1-[4-(trifluoromethyl)phenyl]cyclopropyl}carbonyl)amino]benzoic acid]",71
23,"CC(C)n1cc(-c2c(F)cc(NC(=O)C3(c4ccc(OC(F)(F)F)cc4)CC3)cc2C(=O)O)cn1 [Example 86, 3-Fluoro-2-[1-(propan-2-yl)-1H-pyrazol-4-yl]-5-[({1-[4-(trifluoromethoxy)phenyl]cyclopropyl}carbonyl)amino]benzoic acid]",69
24,"Cc1ccc(C2(C(=O)Nc3cc(F)c(-c4cnn(C(C)C)c4)c(C(=O)O)c3)CC2)c(F)c1 [Example 87, 3-Fluoro-5-({[1-(2-fluoro-4-methylphenyl)cyclopropyl]carbonyl}amino)-2-[1-(propan-2-yl)-1H-pyrazol-4-yl]benzoic acid]",38
